{"source": "patent US9828360B2", "about": "(Array BioPharma Inc., priority 2012, dated 2017)", "key": {"AKT3": {"biological_target": "T1, AKT3 (Homo sapiens, UniProt Q9Y243)", "T1 construct": "purchased Millipore, Inc. (KinaseProfiler service)", "T1 sequence (Q9Y243 whole entry)": "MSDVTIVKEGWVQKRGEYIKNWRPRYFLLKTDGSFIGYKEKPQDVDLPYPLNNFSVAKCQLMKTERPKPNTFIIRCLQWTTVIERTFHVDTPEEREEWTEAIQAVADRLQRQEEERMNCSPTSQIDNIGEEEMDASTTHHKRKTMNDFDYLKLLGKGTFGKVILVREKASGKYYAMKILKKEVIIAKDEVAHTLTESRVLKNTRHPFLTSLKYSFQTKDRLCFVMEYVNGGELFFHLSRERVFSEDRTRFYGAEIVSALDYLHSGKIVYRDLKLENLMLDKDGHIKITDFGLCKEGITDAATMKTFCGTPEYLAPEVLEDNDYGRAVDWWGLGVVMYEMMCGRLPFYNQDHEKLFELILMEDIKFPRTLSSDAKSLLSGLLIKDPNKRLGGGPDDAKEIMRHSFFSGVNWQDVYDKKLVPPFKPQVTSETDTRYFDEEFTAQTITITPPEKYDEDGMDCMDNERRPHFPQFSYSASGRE", "assay": "KinaseProfiler off-target kinase profiling", "format": "biochemical", "conditions": "10 μM, ATP near Km", "procedure,_shortened": "(§1)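 POC (mean, n=2) at 10 μM inhibitor; ATP near Km of each enzyme.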"}, "JAK3": {"biological_target": "T2, JAK3 (Homo sapiens, UniProt P52333)", "T2 construct": "purchased Millipore, Inc. (KinaseProfiler service)", "assay": "KinaseProfiler off-target kinase profiling", "format": "biochemical", "conditions": "10 μM, ATP near Km", "procedure,_shortened": "as §1"}, "SRPK1": {"biological_target": "T3, SRPK1 (Homo sapiens, UniProt Q96SB4)", "T3 construct": "purchased Millipore, Inc. (KinaseProfiler service)", "assay": "KinaseProfiler off-target kinase profiling", "format": "biochemical", "conditions": "10 μM, ATP near Km", "procedure,_shortened": "as §1"}, "PKCepsilon": {"biological_target": "T4, PKCepsilon (Homo sapiens, UniProt Q02156)", "T4 construct": "purchased Millipore, Inc. (KinaseProfiler service)", "T4 sequence (Q02156 whole entry)": "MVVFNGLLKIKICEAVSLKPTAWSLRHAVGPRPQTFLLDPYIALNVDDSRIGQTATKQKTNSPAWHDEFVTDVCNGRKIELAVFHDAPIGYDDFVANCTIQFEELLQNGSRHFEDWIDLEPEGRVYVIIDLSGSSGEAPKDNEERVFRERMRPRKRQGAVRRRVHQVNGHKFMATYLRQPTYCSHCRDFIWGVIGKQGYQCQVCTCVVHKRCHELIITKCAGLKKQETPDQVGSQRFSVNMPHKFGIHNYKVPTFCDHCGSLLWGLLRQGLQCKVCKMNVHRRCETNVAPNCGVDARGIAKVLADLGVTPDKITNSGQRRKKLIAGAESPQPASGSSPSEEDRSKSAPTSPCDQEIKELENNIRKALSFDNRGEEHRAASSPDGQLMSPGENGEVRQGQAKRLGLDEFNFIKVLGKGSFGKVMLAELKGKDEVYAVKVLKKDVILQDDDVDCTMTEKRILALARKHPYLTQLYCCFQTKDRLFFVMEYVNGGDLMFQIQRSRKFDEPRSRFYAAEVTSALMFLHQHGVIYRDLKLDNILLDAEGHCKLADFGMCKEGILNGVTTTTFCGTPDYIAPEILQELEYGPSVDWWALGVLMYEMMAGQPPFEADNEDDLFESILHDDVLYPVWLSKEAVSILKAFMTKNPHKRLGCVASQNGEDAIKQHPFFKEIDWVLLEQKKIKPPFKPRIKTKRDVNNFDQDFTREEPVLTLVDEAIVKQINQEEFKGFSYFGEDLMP", "assay": "KinaseProfiler off-target kinase profiling", "format": "biochemical", "conditions": "10 μM, ATP near Km", "procedure,_shortened": "as §1"}, "MSSK1": {"biological_target": "T5, MSSK1 (Homo sapiens, UniProt Q9UPE1)", "T5 construct": "purchased Millipore, Inc. (KinaseProfiler service)", "assay": "KinaseProfiler off-target kinase profiling", "format": "biochemical", "conditions": "10 μM, ATP near Km", "procedure,_shortened": "as §1"}, "Rsk1": {"biological_target": "T6, Rsk1 (Homo sapiens, UniProt Q15418)", "T6 construct": "purchased Millipore, Inc. (KinaseProfiler service)", "T6 sequence (Q15418 whole entry)": "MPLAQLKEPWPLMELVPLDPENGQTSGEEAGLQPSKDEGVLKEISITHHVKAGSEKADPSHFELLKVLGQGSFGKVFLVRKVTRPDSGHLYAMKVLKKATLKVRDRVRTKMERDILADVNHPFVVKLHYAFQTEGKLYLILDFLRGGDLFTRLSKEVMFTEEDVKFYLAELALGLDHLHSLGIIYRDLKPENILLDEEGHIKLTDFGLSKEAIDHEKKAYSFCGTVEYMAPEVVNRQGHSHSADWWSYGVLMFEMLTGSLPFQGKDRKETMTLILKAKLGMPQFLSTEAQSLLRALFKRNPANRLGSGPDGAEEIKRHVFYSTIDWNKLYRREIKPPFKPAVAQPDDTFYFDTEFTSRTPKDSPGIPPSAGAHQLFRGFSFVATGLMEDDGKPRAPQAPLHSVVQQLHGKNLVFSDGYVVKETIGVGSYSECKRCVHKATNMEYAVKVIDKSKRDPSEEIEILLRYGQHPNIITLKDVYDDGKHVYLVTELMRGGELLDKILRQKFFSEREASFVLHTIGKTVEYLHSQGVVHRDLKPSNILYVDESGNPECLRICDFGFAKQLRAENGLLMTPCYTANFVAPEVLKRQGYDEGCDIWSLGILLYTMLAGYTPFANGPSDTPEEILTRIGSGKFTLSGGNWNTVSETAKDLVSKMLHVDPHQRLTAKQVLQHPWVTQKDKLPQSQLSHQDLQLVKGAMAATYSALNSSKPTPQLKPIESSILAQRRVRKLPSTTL", "assay": "KinaseProfiler off-target kinase profiling", "format": "biochemical", "conditions": "10 μM, ATP near Km", "procedure,_shortened": "as §1"}, "Tie2": {"biological_target": "T7, Tie2 (Homo sapiens, UniProt Q02763)", "T7 construct": "purchased Millipore, Inc. (KinaseProfiler service)", "assay": "KinaseProfiler off-target kinase profiling", "format": "biochemical", "conditions": "10 μM, ATP near Km", "procedure,_shortened": "as §1"}, "MAP4K2": {"biological_target": "T8, MAP4K2 (Homo sapiens, UniProt Q12851)", "T8 construct": "purchased Millipore, Inc. (KinaseProfiler service)", "assay": "KinaseProfiler off-target kinase profiling", "format": "biochemical", "conditions": "10 μM, ATP near Km", "procedure,_shortened": "as §1"}, "CSK": {"biological_target": "T9, CSK (Homo sapiens, UniProt P41240)", "T9 construct": "purchased Millipore, Inc. (KinaseProfiler service)", "assay": "KinaseProfiler off-target kinase profiling", "format": "biochemical", "conditions": "10 μM, ATP near Km", "procedure,_shortened": "as §1"}, "EphA3": {"biological_target": "T10, EphA3 (Homo sapiens, UniProt P29320)", "T10 construct": "purchased Millipore, Inc. (KinaseProfiler service)", "assay": "KinaseProfiler off-target kinase profiling", "format": "biochemical", "conditions": "10 μM, ATP near Km", "procedure,_shortened": "as §1"}, "TEC Activated": {"biological_target": "T11, TEC Activated (Homo sapiens, UniProt P42680)", "T11 construct": "purchased Millipore, Inc. (KinaseProfiler service)", "assay": "KinaseProfiler off-target kinase profiling", "format": "biochemical", "conditions": "10 μM, ATP near Km", "procedure,_shortened": "as §1"}, "IGF-1R Activated": {"biological_target": "T12, IGF-1R Activated (Homo sapiens, UniProt P08069)", "T12 construct": "purchased Millipore, Inc. (KinaseProfiler service)", "assay": "KinaseProfiler off-target kinase profiling", "format": "biochemical", "conditions": "10 μM, ATP near Km", "procedure,_shortened": "as §1"}, "ERK1": {"biological_target": "T13, ERK1 (Homo sapiens, UniProt P27361)", "T13 construct": "purchased Millipore, Inc. (KinaseProfiler service)", "T13 sequence (P27361 whole entry)": "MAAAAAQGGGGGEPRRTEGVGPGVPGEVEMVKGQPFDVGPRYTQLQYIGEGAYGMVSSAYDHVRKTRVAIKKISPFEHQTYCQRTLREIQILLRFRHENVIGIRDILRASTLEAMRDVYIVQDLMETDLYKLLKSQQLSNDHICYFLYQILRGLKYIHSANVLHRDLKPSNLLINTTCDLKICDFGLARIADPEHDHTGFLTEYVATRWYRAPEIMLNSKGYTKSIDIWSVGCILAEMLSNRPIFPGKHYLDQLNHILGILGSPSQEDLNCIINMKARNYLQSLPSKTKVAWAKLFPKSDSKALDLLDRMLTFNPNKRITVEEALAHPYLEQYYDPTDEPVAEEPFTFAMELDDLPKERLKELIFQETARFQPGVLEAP", "assay": "KinaseProfiler off-target kinase profiling", "format": "biochemical", "conditions": "10 μM, ATP near Km", "procedure,_shortened": "as §1"}, "FGFR1": {"biological_target": "T14, FGFR1 (Homo sapiens, UniProt P11362)", "T14 construct": "purchased Millipore, Inc. (KinaseProfiler service)", "assay": "KinaseProfiler off-target kinase profiling", "format": "biochemical", "conditions": "10 μM, ATP near Km", "procedure,_shortened": "as §1"}, "ErbB4": {"biological_target": "T15, ErbB4 (Homo sapiens, UniProt Q15303)", "T15 construct": "purchased Millipore, Inc. (KinaseProfiler service)", "assay": "KinaseProfiler off-target kinase profiling", "format": "biochemical", "conditions": "10 μM, ATP near Km", "procedure,_shortened": "as §1"}, "MKK7beta": {"biological_target": "T16, MKK7beta (Homo sapiens, UniProt O14733)", "T16 construct": "purchased Millipore, Inc. (KinaseProfiler service)", "assay": "KinaseProfiler off-target kinase profiling", "format": "biochemical", "conditions": "10 μM, ATP near Km", "procedure,_shortened": "as §1"}, "CDK3/cyclinE": {"biological_target": "T17, CDK3/cyclinE (Homo sapiens, UniProt Q00526)", "T17 construct": "purchased Millipore, Inc. (KinaseProfiler service)", "T17 sequence (Q00526 whole entry)": "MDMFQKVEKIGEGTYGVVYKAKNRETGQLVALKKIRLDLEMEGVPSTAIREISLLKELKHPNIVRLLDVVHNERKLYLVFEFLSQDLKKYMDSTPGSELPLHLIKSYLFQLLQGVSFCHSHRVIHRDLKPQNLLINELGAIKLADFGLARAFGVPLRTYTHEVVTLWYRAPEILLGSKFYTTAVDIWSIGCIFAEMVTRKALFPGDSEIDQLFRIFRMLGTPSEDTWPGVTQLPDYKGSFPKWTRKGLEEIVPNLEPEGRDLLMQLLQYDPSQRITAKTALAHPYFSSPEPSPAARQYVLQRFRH", "T17 sequence (P24864 whole entry partner)": "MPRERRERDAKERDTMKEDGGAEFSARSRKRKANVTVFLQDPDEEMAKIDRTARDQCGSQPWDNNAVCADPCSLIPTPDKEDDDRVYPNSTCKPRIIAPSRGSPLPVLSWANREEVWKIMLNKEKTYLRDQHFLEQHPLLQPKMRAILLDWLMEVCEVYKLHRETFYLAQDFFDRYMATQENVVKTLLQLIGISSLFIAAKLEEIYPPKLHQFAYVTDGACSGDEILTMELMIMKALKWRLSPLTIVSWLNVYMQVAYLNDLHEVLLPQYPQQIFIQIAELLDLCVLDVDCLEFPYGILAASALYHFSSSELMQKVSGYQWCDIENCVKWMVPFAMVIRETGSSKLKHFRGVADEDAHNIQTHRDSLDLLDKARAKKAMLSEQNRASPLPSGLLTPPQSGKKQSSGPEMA", "assay": "KinaseProfiler off-target kinase profiling", "format": "biochemical", "conditions": "10 μM, ATP near Km", "procedure,_shortened": "as §1"}, "PKCiota": {"biological_target": "T18, PKCiota (Homo sapiens, UniProt P41743)", "T18 construct": "purchased Millipore, Inc. (KinaseProfiler service)", "assay": "KinaseProfiler off-target kinase profiling", "format": "biochemical", "conditions": "10 μM, ATP near Km", "procedure,_shortened": "as §1"}, "LKB1": {"biological_target": "T19, LKB1 (Homo sapiens, UniProt Q15831)", "T19 construct": "purchased Millipore, Inc. (KinaseProfiler service)", "T19 sequence (Q15831 whole entry)": "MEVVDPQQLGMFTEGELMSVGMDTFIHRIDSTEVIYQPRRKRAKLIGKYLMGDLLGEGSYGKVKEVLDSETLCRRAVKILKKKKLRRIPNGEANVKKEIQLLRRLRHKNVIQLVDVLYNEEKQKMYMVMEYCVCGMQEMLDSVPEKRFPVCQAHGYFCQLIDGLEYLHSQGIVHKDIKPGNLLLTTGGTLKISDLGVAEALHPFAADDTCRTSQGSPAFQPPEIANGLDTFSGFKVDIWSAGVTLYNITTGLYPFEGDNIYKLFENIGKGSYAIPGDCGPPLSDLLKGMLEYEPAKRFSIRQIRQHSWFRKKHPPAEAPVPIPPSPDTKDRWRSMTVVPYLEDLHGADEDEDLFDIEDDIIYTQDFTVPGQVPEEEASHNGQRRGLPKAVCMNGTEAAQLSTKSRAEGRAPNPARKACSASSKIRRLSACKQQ", "T19 sequence (Q7RTN6 whole entry partner)": "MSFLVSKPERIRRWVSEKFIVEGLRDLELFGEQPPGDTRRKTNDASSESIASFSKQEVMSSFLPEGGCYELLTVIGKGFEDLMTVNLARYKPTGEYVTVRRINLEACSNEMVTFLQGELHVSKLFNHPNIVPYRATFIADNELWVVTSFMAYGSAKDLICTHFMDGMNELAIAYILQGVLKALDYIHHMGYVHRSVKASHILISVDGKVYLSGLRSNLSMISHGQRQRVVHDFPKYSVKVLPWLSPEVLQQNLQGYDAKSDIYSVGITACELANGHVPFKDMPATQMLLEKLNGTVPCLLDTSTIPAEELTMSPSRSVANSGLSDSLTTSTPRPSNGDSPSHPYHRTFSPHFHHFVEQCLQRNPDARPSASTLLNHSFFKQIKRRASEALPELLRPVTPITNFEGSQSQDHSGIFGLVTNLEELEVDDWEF", "T19 sequence (Q9Y376 whole entry partner)": "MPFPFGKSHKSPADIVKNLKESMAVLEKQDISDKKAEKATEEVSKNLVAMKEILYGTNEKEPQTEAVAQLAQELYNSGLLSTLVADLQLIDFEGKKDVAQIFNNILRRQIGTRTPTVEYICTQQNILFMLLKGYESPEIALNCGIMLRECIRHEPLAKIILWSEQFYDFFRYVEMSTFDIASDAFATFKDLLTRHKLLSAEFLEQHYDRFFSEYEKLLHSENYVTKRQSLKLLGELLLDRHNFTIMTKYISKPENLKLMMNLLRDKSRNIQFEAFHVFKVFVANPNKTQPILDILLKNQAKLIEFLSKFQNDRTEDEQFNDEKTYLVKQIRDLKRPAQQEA", "assay": "KinaseProfiler off-target kinase profiling", "format": "biochemical", "conditions": "10 μM, ATP near Km", "procedure,_shortened": "as §1"}, "MLK1": {"biological_target": "T20, MLK1 (Homo sapiens, UniProt P80192)", "T20 construct": "purchased Millipore, Inc. (KinaseProfiler service)", "assay": "KinaseProfiler off-target kinase profiling", "format": "biochemical", "conditions": "10 μM, ATP near Km", "procedure,_shortened": "as §1"}, "MAP3K5": {"biological_target": "T21, MAP3K5 (Homo sapiens, UniProt Q99683)", "T21 construct": "purchased Millipore, Inc. (KinaseProfiler service)", "assay": "KinaseProfiler off-target kinase profiling", "format": "biochemical", "conditions": "10 μM, ATP near Km", "procedure,_shortened": "as §1"}, "ITK": {"biological_target": "T22, ITK (Homo sapiens, UniProt Q08881)", "T22 construct": "purchased Millipore, Inc. (KinaseProfiler service)", "T22 sequence (Q08881 whole entry)": "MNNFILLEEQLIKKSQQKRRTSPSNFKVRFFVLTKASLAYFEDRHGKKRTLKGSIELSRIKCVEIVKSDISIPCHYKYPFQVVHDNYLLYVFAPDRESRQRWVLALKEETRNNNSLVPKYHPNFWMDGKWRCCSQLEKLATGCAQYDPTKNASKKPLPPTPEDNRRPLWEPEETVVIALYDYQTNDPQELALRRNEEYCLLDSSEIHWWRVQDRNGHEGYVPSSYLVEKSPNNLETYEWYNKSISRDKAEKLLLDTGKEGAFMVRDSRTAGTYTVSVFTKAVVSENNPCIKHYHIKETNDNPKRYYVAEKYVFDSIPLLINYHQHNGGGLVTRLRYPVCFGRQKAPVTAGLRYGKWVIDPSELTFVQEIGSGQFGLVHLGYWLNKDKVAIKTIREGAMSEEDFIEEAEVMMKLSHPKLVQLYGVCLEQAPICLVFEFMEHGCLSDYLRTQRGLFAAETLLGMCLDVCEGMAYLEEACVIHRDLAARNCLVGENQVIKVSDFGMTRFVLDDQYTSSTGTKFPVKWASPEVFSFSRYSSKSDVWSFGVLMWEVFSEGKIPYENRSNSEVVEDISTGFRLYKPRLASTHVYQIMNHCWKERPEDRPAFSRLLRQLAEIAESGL", "assay": "KinaseProfiler off-target kinase profiling", "format": "biochemical", "conditions": "10 μM, ATP near Km", "procedure,_shortened": "as §1"}, "TrkA [1]": {"biological_target": "T23, TrkA (Homo sapiens, UniProt P04629)", "assay": "KinaseProfiler off-target kinase profiling", "format": "biochemical", "set-up": "purchased Millipore, Inc. (KinaseProfiler service)", "conditions": "10 μM, ATP near Km", "method": "A representative compound of the invention (Example 48) was tested for off-target kinase activity at a concentration of 10 μM by Millipore, Inc. in their KinaseProfiler™ service against all the kinases available in their full kinase panel. The compound was run in duplicate at a concentration of ATP near the Km for each individual kinase according to Millipore's specifications. The results are shown in Table B. Data are reported as percent of control (POC) and are the average of the two replicates."}, "TrkA [2]": {"biological_target": "T23, TrkA", "assay": "TrkA LanthaScreen Eu Kinase Binding Assay", "set-up": "6HIS tagged cytoplasmic domain from Invitrogen, Cat. No. PV3144; purchased Invitrogen PV3144", "conditions": "averaged IC50 values, read-out: TrkA Enzyme IC50", "method": "TrkA binding activity was determined in a TrkA LanthaScreen™ Eu Kinase Binding Assay. 5 nM His-tagged recombinant human TrkA (6HIS tagged cytoplasmic domain from Invitrogen, Cat. No. PV3144) was incubated with 4 nM Alexa-Fluor® Tracer 236 (Invitrogen Cat. No. PV5592), 2 nM biotinylated anti-His (Invitrogen Cat. No. PV6090), and 2 nM europium-labeled Streptavidin (Invitrogen Cat. No. PV5899), in buffer (25 mM MOPS, pH 7.5, 5 mM MgCl2, 0.005% Triton X-100). Three fold serial dilutions of compounds of the invention in DMSO were added to a final percentage of 2% DMSO. After 60-minute incubation at 22° C., the reaction was measured using the EnVision mutlimode plate reader (PerkinElmer) via TR-FRET dual wavelength detection at […]. The percent of control was calculated using a ratiometric emission factor. The IC50 values were determined by fitting a four parameter model to the percent of control data.\nTable A provides averaged IC50 values for compounds of the invention when tested in the assay of Example A, where A represents an averaged IC50 value <100 nM; and B represents an averaged IC50 value from 100 to 1,000 nM."}}, "data": [{"compound": "COCCN1C[C@@H](NC(=O)Nc2sc(C(C)C)nc2-c2ccccc2)[C@H](c2ccccc2)C1", "note": "[Example 48, 1-(2-isopropyl-4-phenylthiazol-5-yl)-3-((3S,4R)-1-(2-methoxyethyl)-4-phenylpyrrolidin-3-yl)urea]", "values": [{"measurement": "Avg POC", "setting": "AKT3", "result": "106.5% of control"}, {"measurement": "Avg POC", "setting": "JAK3", "result": "102.5% of control"}, {"measurement": "Avg POC", "setting": "SRPK1", "result": "115.5% of control"}, {"measurement": "Avg POC", "setting": "PKCepsilon", "result": "103.5% of control"}, {"measurement": "Avg POC", "setting": "MSSK1", "result": "94% of control"}, {"measurement": "Avg POC", "setting": "Rsk1", "result": "121% of control"}, {"measurement": "Avg POC", "setting": "Tie2", "result": "96% of control"}, {"measurement": "Avg POC", "setting": "MAP4K2", "result": "110.5% of control"}, {"measurement": "Avg POC", "setting": "CSK", "result": "108% of control"}, {"measurement": "Avg POC", "setting": "EphA3", "result": "112% of control"}, {"measurement": "Avg POC", "setting": "TEC Activated", "result": "94% of control"}, {"measurement": "Avg POC", "setting": "IGF-1R Activated", "result": "102% of control"}, {"measurement": "Avg POC", "setting": "ERK1", "result": "100% of control"}, {"measurement": "Avg POC", "setting": "FGFR1", "result": "98% of control"}, {"measurement": "Avg POC", "setting": "ErbB4", "result": "97% of control"}, {"measurement": "Avg POC", "setting": "MKK7beta", "result": "98% of control"}, {"measurement": "Avg POC", "setting": "CDK3/cyclinE", "result": "99.5% of control"}, {"measurement": "Avg POC", "setting": "PKCiota", "result": "120% of control"}, {"measurement": "Avg POC", "setting": "LKB1", "result": "114.5% of control"}, {"measurement": "Avg POC", "setting": "MLK1", "result": "115% of control"}, {"measurement": "Avg POC", "setting": "MAP3K5", "result": "102.5% of control"}, {"measurement": "Avg POC", "setting": "ITK", "result": "170.5% of control"}, {"measurement": "Avg POC", "setting": "TrkA [1]", "result": "2.5% of control"}, {"measurement": "IC50", "setting": "TrkA [2]", "result": "< 100", "unit": "nM"}]}]}
